The source of these data is patent publication US9969698B2, “Quinoxalinyl-piperazinamide methods of use” (REXAHN PHARMACEUTICALS, INC., priority 2015, dated 2018).

SMILES strings stand for the structures.

The test system of series [1] is pooled human liver microsomes. The experiment in a line: RX-5902 metabolism in liver microsomes with CYP450 isozyme-selective chemical inhibitors. It counts as in vitro ADME. As for the experimental part: Two in vitro studies were performed to examine the involvement of specific cytochrome P450 (CYP450) isozymes in the in vitro metabolism of RX-5902. In the first study, the loss of RX-5902 was measured after incubation with expressed CYP450 isozymes (1A2, 2A6, 2B6, 2C8, 2C9, 2C19, 2D6, 3A4 and 3A5). […] In the second study, RX-5902 was incubated with pooled human liver microsomes in the presence of CYP450 isozyme-selective chemical inhibitors. The inhibitors tested were selective for 1A2, 2A6, 2B6, 2C8, 2C9, 2C19, 2D6, and 3A4/5.

Another series has as its target T1, Y593 phospho-p68 (Homo sapiens, UniProt P17844).
T1 construct: purchased Origene (Rockville, Md.)
The experiment in a line: Filter binding assay with 3H-labeled RX-5902. To be noted: estimated by 50% of p68 bound to RX-5902. The method, then: (§1) Recombinant β-catenin was used without further treatment whereas recombinant p68 protein was either used as p68 or phosphorylated by c-Abl for filter binding assay. Recombinant c-Abl was obtained from Abeam (Cambridge, Mass.).
(§2) Filter binding studies have been previously described elsewhere (Coombs et al., Proc. Natl. Acad. Sci. USA, 75:5291-5295 (1978). Briefly, recombinant p68 RNA helicase with/without tyrosine phosphorylation was added to the ^3H-labeled RX-5902 (10 Ci/mmol) with PBS. ^3H-labeled RX-5902 was synthesized from Quotient Bioresearch (Cardiff, UK). After incubation at room temperature for 30 minutes, the binding mixtures were loaded onto a nitrocellulose membrane. The membrane was washed five times with PBS, and then dried by vacuum. The amounts of RX-5902 bound to p68 with/without phosphorylation of p68 were determined by ^3H scintillation counting. The same procedure was done with ^3H-labeled RX-5902 alone without addition of p68 RNA helicase and sample p68 RNA helicase alone without addition of the ^3H-labeled RX-5902 as background ^3H scintillation counting. The binding percentages of p68 to the compound were calculated and plotted against concentrations. The dissociation constant (Kd) was estimated by the concentration at 50% of p68 bound to RX-5902 and calculated by linear regression analysis.

The target in a further series is T2, unphosphorylated p68 (Homo sapiens, UniProt P17844).
T2 construct: purchased Origene (Rockville, Md.)
T2 sequence (P17844 whole entry): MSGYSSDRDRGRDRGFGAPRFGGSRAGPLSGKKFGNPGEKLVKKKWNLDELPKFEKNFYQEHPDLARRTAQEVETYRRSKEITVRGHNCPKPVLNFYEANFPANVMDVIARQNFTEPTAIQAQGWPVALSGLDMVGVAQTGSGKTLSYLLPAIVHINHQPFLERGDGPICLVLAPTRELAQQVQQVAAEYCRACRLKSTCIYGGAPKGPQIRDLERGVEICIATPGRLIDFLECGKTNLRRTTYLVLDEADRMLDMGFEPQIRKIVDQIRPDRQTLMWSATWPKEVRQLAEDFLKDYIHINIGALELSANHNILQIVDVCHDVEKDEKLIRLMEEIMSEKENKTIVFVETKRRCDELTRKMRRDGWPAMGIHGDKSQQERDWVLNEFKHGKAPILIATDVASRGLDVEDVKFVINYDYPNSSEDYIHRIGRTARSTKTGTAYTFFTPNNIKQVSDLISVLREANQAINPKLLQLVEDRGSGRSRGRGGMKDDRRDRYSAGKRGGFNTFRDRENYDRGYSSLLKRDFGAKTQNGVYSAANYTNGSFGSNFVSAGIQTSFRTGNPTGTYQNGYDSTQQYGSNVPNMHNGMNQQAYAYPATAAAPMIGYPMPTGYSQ
The experiment in a line: Filter binding assay with 3H-labeled RX-5902. To be noted: filter binding studies. As for the experimental part: as §1, §2

T1 sequence (P17844 whole entry): as above

On to `COc1cc(OC)cc(N2CCN(C(=O)Nc3nc4cc(F)ccc4nc3OC)CC2)c1` [RX-5902, 4-(3,5-dimethoxyphenyl)-N-(7-fluoro-3-methoxyquinoxalin-2-yl)piperazine-1-carboxamide], for which the “inhibition of RX-5902 metabolism” value is “Marked inhibition” in series [1] (in the presence of a CYP3A4/5-selective inhibitor (ketoconazole)) and “no significant inhibition” in series [1] (with inhibitors of the other isozymes (1A2, 2A6, 2B6, 2C8, 2C9, 2C19, 2D6)). In addition, the dissociation constant (Kd) – broadly, a measure of binding affinity in units of concentration – at Y593 phospho-p68 was around 19 nM. Also, the “interaction with unphosphorylated p68” value at unphosphorylated p68 is reported as “did not interact”.
